# Experimental data taken from US20260306644A1, “ANTIBODY RECRUITING MOLECULES FOR THE TREATMENT OF CORONAVIRUS DISEASE-19” (priority 2023, published 2026).
# Where “and” joins values, the source holds several entries; their conditions need not be identical. Equal entries are not always repeated. Positions of bridges follow the written chain, without caps; N, C: chain ends. Non-standard residues stand in square brackets, D forms with d. Residues, ends and D or L forms follow the SMILES beside them. No end group written: not given here. *: point of attachment. X1 = O=C(CCCC[C@@H]1SC[C@@H]2NC(=O)N[C@@H]21)NCCOCCOCCOCCOCCN*; Biotin = O=C1N[C@H]2[C@H](CS[C@H]2CCCCC(=O)*)N1; PEG4 = NCCOCCOCCOCCOCCC(=O)O; hCys = N[C@@H](CCS)C(=O)O; Nle = CCCC[C@H](N)C(=O)O; Aib = CC(C)(N)C(=O)O
# Tests used:
# [1] = biological target: SARS-CoV-2 Spike protein (Severe acute respiratory syndrome coronavirus 2, UniProt P0DTC2); assay: Ternary binding of SARS-CoV-2 Spike protein (293T cells expressing Spike-GFP, IgG-AF647, flow cytometry); format: cell-based; conditions: 293T cells expressing Spike-GFP; IgG-AF647 10 μg/ml; repeat values/batches listed separately; read-out: SARS-CoV-2 Ternary binding EC50
# [2] = biological target: T1, SARS-CoV-2 Spike Glycoprotein RBD protein (Severe acute respiratory syndrome coronavirus 2, UniProt P0DTC2); assay: Binding of biotinylated ligands to SARS-CoV-2 Spike Glycoprotein RBD protein by ELISA; conditions: ELISA; biotinylated ligands; Spike RBD; read-out: ELISA SARS-CoV-2 Spike RBD Protein Binding EC50
# T1 construct: SARS-CoV-2 (COVID-19) S Protein RBD, His Tag; purchased Acro Biosystems SPD-C52H3
# Description: Materials. The binding affinity of biotinylated ligands to SARS-CoV-2 Spike Glycoprotein RBD protein was determined by ELISA. The binding assay was performed using the following steps: (1) assay plates (PE B&W Isoplate 96-well Flat Bottom, High Bindi-g - Perkin Elmer 6005580) were coated with 100 ul Anti-6× His tag antibody (Anti-6× His tag Antibody; Abcam ab15149, Mouse Monoclonal; Cambridge, UK) at 5 μg/ml in PBS, incubate 1 hour at 37° C. without shaking. The plates were washed (each wash step of this assay includes four 1-minute washes with 200 ul phosphate-buffered saline-0.05% (w/v) Tween® 20 detergent (PBST)). (2) Plates were blocked with 200 ul PBST-5% BSA (PBSTB; American Bio AB01088-00100; Canton, MA), for an hour at room temperature on a plate shaker (400 rpm). The plates were washed. […] The plates were washed. (4) Ligands were added, 100 ul at a concentration range of 0.1 mM to 100 nM in PBSTB, and incubated for 1 hour at room temperature on a plate shaker (200 RPM). The plates were washed. (5) NeutrAvidin™-HRP (Invitrogen 31030; Waltham, MA) is added, 100 ul at a dilution of 1:20,000 in PBSTB, and incubated for 1 hour at room temperature on a plate shaker (200 RPM). The plates were washed. (6) SuperSignal ELISA Pico Chemiluminescent Substrate (Thermo Scientific 37069; Waltham, MA) was added and incubated for 5 minutes at room temperature on a plate shaker (200 RPM).
# [3] = tested on: live SARS-CoV-2 Virus (wildtype); assay: Neutralization of live SARS-CoV-2 virus, wildtype (Vero E6 cells, nucleoprotein ELISA); format: cell-based; conditions: live virus neutralization, isolate Seattle WA (IITRI), Vero E6
# [4] = biological target: T2, SARS-CoV-2 Spike A (wild-type) (Severe acute respiratory syndrome coronavirus 2, UniProt P0DTC2); assay: MSD ACE2 competition assay (inhibition of Spike binding with ACE2, ECL), A (wild-type); conditions: IC50 Wild Type, Wild Type Spike
# T2 construct: purchased Meso Scale Diagnostics, LLC V-PLEX SARS-CoV-2 Panel 13 (ACE2) Kit / Panel 23 (ACE2) Kit
Compound,EC50 [1],EC50 [2] [nM],EC50 [3] [nM],IC50 [4] [nM]
CC[C@H](C)[C@H](NC(=O)[C@H](CC(C)C)NC(=O)[C@H](CC(=O)O)NC(=O)[C@H](CO)NC(=O)[C@@H](NC(=O)[C@H](CCCNC(=N)N)NC(=O)[C@H](CCSC)NC(=O)[C@H](CO)NC(=O)[C@H](C)NC(=O)[C@@H]1CCCN1C(=O)[C@H](C)NC(=O)[C@H](Cc1c[nH]cn1)NC(=O)CNC(=O)[C@H](CC(C)C)NC(=O)[C@H](CCC(=O)O)NC(=O)[C@H](CC(=O)O)NC(=O)[C@H](CC(C)C)NC(=O)[C@H](CC(C)C)NC(=O)[C@H](CCCNC(=N)N)NC(=O)[C@H](CCSC)NC(=O)[C@@H](NC(=O)[C@H](CCC(=O)O)NC(=O)[C@H](Cc1ccc(O)cc1)NC(=O)[C@@H](NC(=O)[C@H](CCCCN)NC(=O)[C@H](CCC(N)=O)NC(=O)[C@H](CC(C)C)NC(=O)[C@@H](NC(=O)[C@H](Cc1c[nH]c2ccccc12)NC(=O)[C@H](CCC(=O)O)NC(=O)[C@H](CCCCN)NC(=O)[C@H](CC(=O)O)NC(=O)[C@H](CO)NC(=O)CCOCCOCCOCCOCCNC(=O)CCCC[C@@H]1SC[C@@H]2NC(=O)N[C@@H]21)[C@@H](C)CC)[C@@H](C)CC)[C@@H](C)CC)C(C)C)C(=O)N[C@@H](Cc1ccc(O)cc1)C(=O)N[C@@H](CCC(=O)O)C(=O)N[C@@H](Cc1ccccc1)C(=O)N[C@@H](CCSC)C(=O)N[C@@H](CCCCN)C(=O)N[C@@H](CCCCN)C(=O)NCC(N)=O [Compound 193] ({Biotin-PEG4}-SDKEWILQKIYEIMRLLDELGHAPASMRVSDLIYEFMKKG-NH2),2.3 nM and 0.24 nM,4.6,,
CC[C@H](C)[C@H](NC(=O)[C@H](CC(C)C)NC(=O)[C@H](CC(=O)O)NC(=O)[C@H](CO)NC(=O)[C@@H](NC(=O)[C@H](CCCNC(=N)N)NC(=O)[C@H](CCSC)NC(=O)[C@H](CO)NC(=O)[C@H](C)NC(=O)[C@H](CCC(=O)O)NC(=O)[C@H](C)NC(=O)[C@H](Cc1c[nH]cn1)NC(=O)CNC(=O)[C@H](CC(C)C)NC(=O)[C@H](CCC(=O)O)NC(=O)[C@H](CC(=O)O)NC(=O)[C@H](CC(C)C)NC(=O)[C@H](CC(C)C)NC(=O)[C@H](CCCNC(=N)N)NC(=O)[C@H](CCSC)NC(=O)[C@@H](NC(=O)[C@H](CCC(=O)O)NC(=O)[C@H](Cc1ccc(O)cc1)NC(=O)[C@@H](NC(=O)[C@H](CCCCN)NC(=O)[C@H](CCC(N)=O)NC(=O)[C@H](CC(C)C)NC(=O)[C@@H](NC(=O)[C@H](Cc1c[nH]c2ccccc12)NC(=O)[C@H](CCC(=O)O)NC(=O)[C@H](CCCCN)NC(=O)[C@H](CC(=O)O)NC(=O)[C@H](CO)NC(=O)C(C)(C)NC(=O)CCOCCOCCOCCOCCNC(=O)CCCC[C@@H]1SC[C@@H]2NC(=O)N[C@@H]21)[C@@H](C)CC)[C@@H](C)CC)[C@@H](C)CC)C(C)C)C(=O)N[C@@H](Cc1ccc(O)cc1)C(=O)N[C@@H](CCC(=O)O)C(=O)N[C@@H](Cc1ccccc1)C(=O)N[C@@H](CCSC)C(=O)N[C@@H](CCCCN)C(=O)N[C@@H](CCCCN)C(=O)N[C@H](Cc1ccccc1)C(=O)O [Compound 216],0.46 nM,1.11,,
CCCC[C@H](NC(=O)[C@H](CCC(=O)O)NC(=O)[C@H](CC(=O)O)NC(=O)[C@H](CC(C)C)NC(=O)[C@H](CC(C)C)NC(=O)[C@H](CCCNC(=N)N)NC(=O)[C@H](CCSC)NC(=O)[C@@H](NC(=O)[C@H](CCC(=O)O)NC(=O)[C@H](Cc1ccc(O)cc1)NC(=O)[C@@H](NC(=O)[C@H](CCCCN)NC(=O)[C@H](CCC(N)=O)NC(=O)[C@H](CC(C)C)NC(=O)[C@@H](NC(=O)[C@H](Cc1c[nH]c2ccccc12)NC(=O)[C@H](CCC(=O)O)NC(=O)[C@H](CCCCN)NC(=O)[C@H](CC(=O)O)NC(=O)CCOCCOCCOCCOCCNC(=O)CCCC[C@@H]1SC[C@@H]2NC(=O)N[C@@H]21)[C@@H](C)CC)[C@@H](C)CC)[C@@H](C)CC)C(=O)N[C@H](Cc1c[nH]cn1)C(=O)N[C@@H](Cc1c[nH]cn1)C(=O)N[C@@H](C)C(=O)N[C@@H](CCC(=O)O)C(=O)N[C@@H](C)C(=O)N[C@@H](CO)C(=O)N[C@@H](CCSC)C(=O)N[C@@H](CCCNC(=N)N)C(=O)N[C@H](C(=O)N[C@@H](CO)C(=O)N[C@@H](CC(=O)O)C(=O)N[C@@H](CC(C)C)C(=O)N[C@H](C(=O)N[C@@H](Cc1ccc(O)cc1)C(=O)N[C@@H](CCC(=O)O)C(=O)N[C@@H](Cc1ccccc1)C(=O)N[C@@H](CCSC)C(=O)N[C@@H](CCCCN)C(=O)N[C@@H](CCCCN)C(=O)NCC(=O)O)[C@@H](C)CC)C(C)C [Compound 222],0.02 nM,0.79,,
CC[C@H](C)[C@@H]1NC(=O)[C@H](Cc2c[nH]c3ccccc23)NC(=O)[C@H](CCC(=O)O)NC(=O)CSCC[C@@H](C(=O)NCCOCCOCCOCCOCCNC(=O)CCCC[C@@H]2SC[C@@H]3NC(=O)N[C@@H]32)NC(=O)[C@H](CCCCN)NC(=O)[C@H](CCCCN)NC(=O)[C@H](CCSC)NC(=O)[C@H](Cc2ccccc2)NC(=O)[C@H](CCC(=O)O)NC(=O)[C@H](Cc2ccc(O)cc2)NC(=O)[C@H]([C@@H](C)CC)NC(=O)[C@H](CC(C)C)NC(=O)[C@H](CC(=O)O)NC(=O)[C@H](CO)NC(=O)[C@H](C(C)C)NC(=O)[C@H](CCCNC(=N)N)NC(=O)[C@H](CCSC)NC(=O)[C@H](CO)NC(=O)[C@H](C)NC(=O)[C@H](CCC(=O)O)NC(=O)[C@H](C)NC(=O)[C@H](Cc2c[nH]cn2)NC(=O)CNC(=O)[C@H](CC(C)C)NC(=O)[C@H](CCC(=O)O)NC(=O)[C@H](CC(=O)O)NC(=O)[C@H](CC(C)C)NC(=O)[C@H](CC(C)C)NC(=O)[C@H](CCCNC(=N)N)NC(=O)[C@H](CCSC)NC(=O)[C@H]([C@@H](C)CC)NC(=O)[C@H](CCC(=O)O)NC(=O)[C@H](Cc2ccc(O)cc2)NC(=O)[C@H]([C@@H](C)CC)NC(=O)[C@H](CCCCN)NC(=O)[C@H](CCC(N)=O)NC(=O)[C@H](CC(C)C)NC1=O [Compound 251] ({CH2CO}-EWILQKIYEIMRLLDELGHAEASMRVSDLIYEFMKK[hCys]-X1; thioether N-37),0.08 nM,0.92,,
DKEWILQKIYEIMRLLDELGHAEASMRVSDLIYEFMKKGDERLLEEAERLLEEVERDCAWHLGELVWCT (disulfide 58-68) [Compound 111],,,0.14,1.39
{Biotin-PEG4}-[Aib]SDKEWILQKIYEIMRLLDELGHAEAS[Nle]RVSDLIY[Aib]FMK[Aib]G [Compound 218],0.1 nM,2.38,,
